The values below come from patent US20250144081A1, “METHODS FOR REDUCING ALCOHOL, DRUG, AND FOOD INTAKE” (The Scripps Research Institute, priority 2022, published 2025).

The test system of data set [1] is mice with degenerative and inflammatory conditions. Conditions: cited from earlier work.
Data set [2] has as its system C57BL/6J mice. Nature of the data set: loss of righting reflex (LORR), sensitivity to alcohol's hypnotic action. The format is in vivo, mouse.
The conditions of data set [3]: in words only; cited from earlier work.
Data set [4] concerns C57BL/6J mice. Description: drinking in the dark (DID) binge drinking paradigm, alcohol intake. The format is in vivo, mouse. Conditions: for alcohol consumption in the DID paradigm over a 4 h drinking session: first 2 h and 4 h. Here is the method: The S1P agonists fingolimod (1, 2, and 4 mg/kg), ozanimod (0.25, 0.5, and 1 mg/kg) and CYM-5442 (1.25, 2.5, and 5 mg/kg) (Tocris, Minneapolis, MN, USA) were suspended in saline with 1% (w/v) Tween 80 and administered intraperitoneally (i.p.) (injection volume in mice 10 ml/kg, in rats 2 ml/kg). Pretreatment time was 30 min for fingolimod and ozanimod, while CYM-5442 was injected 60 min before each behavioral experiment.
Acute effect of the S1P agonists was tested in alcohol binge-like drinking in male and female C57BL/6J mice exposed to the drinking in the dark paradigm. As described by Rhodes and colleagues (Rhodes et al. Physiol Behav 84:53-63, 2005; Thiele et al. Alcohol 48:235-41, 2014) 3 h after lights go off, the water bottle of single-housed mice was replaced with a bottle containing 20% (v/v) alcohol and left in place for 2 h, over three consecutive days during which mice stabilized alcohol drinking. […] Over the experiment, the amount of alcohol consumed by mice was measured by weighing (0.01 g accuracy) the bottle immediately before and after each drinking session. Alcohol consumption was expressed as grams of pure alcohol per kilogram of body weight (g/kg). In addition, at the end of the second 2 h drinking session, blood samples were collected from the tip of the tail of each mouse and BALs were measured.

The next data set is described as follows: body weight (fingolimod). Conditions: in vivo.
Data set [5] is described as follows: rotarod test, motor impairment by S1P receptor agonists (fingolimod). Conditions: in vivo. On the technique in general: Falling from the rotarod earlier than controls is read as motor impairment.
The test system of the next data set is MeCP2^308/Y mice. Nature of the data set: DID paradigm in low drinking MeCP2^308/Y mice, alcohol intake and BALs. The format is in vivo, mouse. Conditions: PF-543 10 mg/kg i.p., 30 min before the drinking session.
Data set [6] deals with C57BL/6J mice. Description: saccharin consumption in the DID paradigm. The format is in vivo, mouse. Conditions: CYM-5442 5 mg/kg i.p., male C57BL/6J mice, first 2 h and 4 h. From the text: An identical experimental plan was adopted to evaluate acute effects of CYM-5442 on the no-drugs reinforcer saccharin (0.002% w/v). Independent groups of C57BL/6J mice were used for testing the effect of CYM-5442 on saccharin intake.

The subject of data set [7] is Wistar rats. Nature of the data set: intravenous methamphetamine self-administration (FR1 and progressive ratio). The format is in vivo, rat. Conditions: CYM-5442 5 mg/kg i.p., male Wistar rats, vs vehicle. Here is the method:
The effect of CYM-5442 was tested on methamphetamine self-administering rats. Male Wistar rats were aseptically implanted with chronic silastic catheters in the right jugular vein and were trained to self-administer methamphetamine (1 h/day at a dose of 0.05 mg/kg/infusion). Rats were trained to self-administer methamphetamine under a fixed-ratio 1 schedule of reinforcement (FR1) whereby one lever press results in the delivery of one methamphetamine infusion (0.05 mg/kg) under 1-h daily sessions.
Male Wistar rats were aseptically implanted with intravenous catheters in the right jugular vein under deep isoflurane anesthesia as previously described in Ahmed et al. (Proc Natl Acad Sci USA 102:11533-8). At the time of testing, the rats' body weights ranged between 350 and 400 g.
Self-administration was performed in operant conditioning chambers (Med Associates, St. Albans, VT, USA) that were enclosed in lit, sound-attenuating, ventilated environmental cubicles. Methamphetamine was delivered through plastic catheter tubing that was connected to an infusion pump. The infusion pump was activated by responses on the right (active) lever. […] A computer controlled fluid delivery and behavioral data recording. All of the rats were tested for methamphetamine self-administration on a continuous reinforcement (fixed ratio 1, FR1) schedule. […] A 20-s timeout (TO) period followed each METH infusion. […]

The test system of data set [8] is C57BL/6J mice. Nature of the data set: acute food intake in 4 h sessions (CLAMS). The format is in vivo, mouse. Conditions: vs 0 mg/kg. Here is the method:
The acute effect of CYM-5442 on food intake was measured in 4 h sessions. CYM-5442 was administered 1 h before the sessions. CYM-5442 reduced food intake in a dose-dependent manner at the doses of 2.5 and 5 mg/Kg in the first 2 h (FIG. 7A) and at the dose of 5 mg/kg after 4 h (FIG. 7B).
(§1) Effect of CYM-5442 was evaluated on food (g) and water intake (ml) and respiratory exchange ratio (RER: VCO2/VO2) of male C57BL/6J mice (n=30) allocated into CLAMS (Comprehensive Lab Animal Monitoring System, Columbus Instruments, Columbus, OH USA) chambers. After 1-week acclimatization, on test day, mice were removed from the metabolic chambers, injected with CYM-5442 60 min before 3 h into the dark of the light/dark cycle and then placed back into the chambers. Food, water intake and RER were monitored starting the 1st to the 12th h of the dark phase of the light/dark cycle.

Data set [9] has as its system C57BL/6J mice. Nature of the data set: rotarod test, motor coordination, mice. The format is in vivo, mouse. Conditions: CYM-5442; male C57BL/6J mice. Here is the method:
(§2) Effect of CYM-5442 on motor coordination was evaluated in male and female C57NBL/6J mice and male Wistar rats in the rotarod apparatus (Rotamex-5, Columbus Instruments, USA). Briefly, one week before testing, animals were extensively habituated to handling and intraperitoneal injections. On test day, animals were weighed and allocated into the four experimental groups. CYM-5442 or vehicle were injected intraperitoneally 60 min before the start of the first trial. Each subject underwent 3 trials of 300 s (intertrial interval 60 s) with a rotarod acceleration from 4 to 40 rpm. Trials in which animals fell before 5 s, calculated from the beginning of the trial, were repeated. For each animal, the latency to fall was assessed and expressed as the average values over the 3 trials.

In data set [10] the test system is Wistar rats. Description: rotarod test, motor coordination, rats. The format is in vivo, rat. Conditions: CYM-5442 5 mg/kg; male Wistar rats. Here is the method:
as §2

For data set [11], the system named is C57BL/6J mice. Nature of the data set: respiratory exchange ratio (RER) by indirect calorimetry (CLAMS). The format is in vivo, mouse. On the procedure:
The effect of CYM-5442 on energy metabolism was tested by indirect calorimetry with the Comprehensive Lab Animal Monitoring System (CLAMS; Columbus Instruments, Columbus, OH USA). After 1-week acclimatization, on test day, mice were removed from metabolic chambers, injected with CYM-5442 3 h into the dark phase of the light/dark cycle and then placed back into chambers. […] The RER indicates the energy source the organism uses over the day. It is typically measured on a scale from 0.7 to 1.
as §1

Data set [12] deals with C57BL/6J mice. Nature of the data set: body composition by quantitative nuclear magnetic resonance (qNMR) after chronic treatment. The format is in vivo, mouse. Conditions: chronic CYM-5442 2.5 mg/kg i.p. On the procedure:
(§3) The effect of chronic daily administration of CYM-5442 on body weight and body fat content was tested in mice fed either a low-fat diet (LFD; D12450K, 10 kcal % Fat, Research Diets, Inc. NJ, US) or a high-fat diet (HFD; D07011903, 45 kcal % Fat) ad libitum. Mice were treated with CYM-5442 (2.5 mg/kg, i.p.) or vehicle 5 days a week over 7 consecutive weeks. […] This is consistent with the moderate half-life of the drug that allows adlibitum fed mice to eat through the day. This finding supports that the metabolic effect of CYM-5442 of increased fat utilization or lipolysis is independent of reduction of food intake.
Body composition was determined with a quantitative nuclear magnetic resonance instrument (qNMR, Echo MRI, Houston, TX).

In data set [13] the test system is C57BL/6J mice. Description: chronic treatment of LFD- or HFD-fed mice: body weight, food and water intake. The format is in vivo, mouse. On the procedure: as §3
[14] abbreviates: CYM-5442 2.5 mg/kg i.p. chronic, HFD-fed or LFD-fed mice, vs vehicle.

Entries after “also recorded” stand apart in the source; their conditions may differ.

Regarding `CC(C)Oc1ccc(-c2nc(-c3cccc4c3CC[C@@H]4NCCO)no2)cc1C#N` [ozanimod, Ozanimod (RPC1063)], the motor deficits entry in [1] is “ameliorated”. The “duration of loss of righting reflex (LORR)” value with C57BL/6J mice [2] (ozanimod 0.1 and 0.3 mg/kg i.p., C57BL/6J mice) is listed as “significantly increased”. Besides, the “half-life (circulating)” value in [3] is “short”. Moreover, in the data set with C57BL/6J mice [4] (ozanimod 0.25-1 mg/kg i.p., C57BL/6J mice, 4 h, p>0.05), the “alcohol consumption at the end of the 4-h drinking session (reducing effect)” value is “not evident”. For the same compound, in the data set with C57BL/6J mice [4] (ozanimod 0.25-1 mg/kg i.p., C57BL/6J mice, first 2 h, p<0.05), the “alcohol consumption in the DID paradigm after 2 h” value is “reduced”.
For the compound `CCCCCCCCc1ccc(CCC(N)(CO)CO)cc1` [fingolimod], the body weight entry in the data set “body weight (fingolimod)” is “did not affect”. Further, the “motor impairment, performance in the rotarod test” value in data set [5] is listed as “did not impair”. Further, the motor deficits entry in [1] is reported as “ameliorated”. Also, the “half-life (circulating)” value in data set [3] is listed as “longer”. Besides, the “alcohol consumption in the DID paradigm over a 4 h drinking session” value in the data set with C57BL/6J mice [4] (fingolimod 4 mg/kg i.p., C57BL/6J mice) is on record as “reduced”.
Consider `Cc1cc(CS(=O)(=O)c2ccccc2)cc(OCc2ccc(CN3CCC[C@@H]3CO)cc2)c1` [PF-543], for which the “alcohol consumption of MeCP2^308/Y mice in the DID paradigm” value with MeCP2^308/Y mice was “increased”.
On to `CCOc1ccc(-c2nc(-c3cccc4c3CCC4NCCO)no2)cc1OCC` (centres unmarked) [CYM-5442], for which the “saccharin [0.002% (w/v)] consumption in the DID paradigm over a 4 h drinking session” value in the data set on C57BL/6J mice [6] is on record as “reduces”. The “lever-responding for methamphetamine, fixed-ratio 1 (FR1), 1-h self-administration session” value in the data set with Wistar rats [7] (acute) is reported as “significantly reduced”. Further, the “methamphetamine self-administration under progressive ratio (PR) schedule, break point” value in the data set with Wistar rats [7] is listed as “significantly reduced; also recorded: lower”. The “food-intake during the 1st 2-hrs” value in the data set on C57BL/6J mice [8] (CYM-5442 2.5 mg/kg and 5 mg/kg) is given as “significantly reduced”. Moreover, the “food-intake over the entire 4-hrs session” value in the data set on C57BL/6J mice [8] (CYM-5442 5 mg/kg) is recorded as “reduced”. In the data set with C57BL/6J mice [9], the “motor coordination performance in the rotarod apparatus (latency to fall, active run time)” value was “did not affect; also recorded: does not alter”. The “motor coordination in the rotarod apparatus” value in the data set on Wistar rats [10] was “did not affect”. Further, in the data set with C57BL/6J mice [11] (CYM-5442 i.p. 1.25, 2.5, 5 mg/kg, for 1-3 hours, dose-dependent), the “Respiratory Exchange Ratio (RER), time course” value is “significantly lower; also recorded: significantly reduced”. Moreover, in the data set on C57BL/6J mice [11] (CYM-5442 i.p., 0 mg/kg vs 5 mg/kg), the “RER, average of 2 hours, first 2 hrs measure point (1-3 hrs after injection)” value is recorded as “significantly reduced”. The “duration of loss of righting reflex (LORR)” value in the data set on C57BL/6J mice [2] (CYM-5442 2.5 mg/kg i.p., alcohol 3.5 g/kg, male C57BL/6J mice) is recorded as “significantly increases”. The “half-life (circulating)” value in data set [3] is “longer; also recorded: moderate”. In the data set with C57BL/6J mice [12], the “body fat in the low-fat diet (LFD)-fed control group (reduction)” value is on record as “not” and the lean body mass result is reported as “without affecting”. In addition, the “body fat in the HFD-fed group” value with C57BL/6J mice [12] (vs vehicle in HFD, 2.5 mg/kg) is on record as “significantly reduced”. Moreover, in the data set on C57BL/6J mice [13] (setting [14]), the “overall daily (24 h) food intake” value is listed as “did not differ” and the “overall daily (24 h) water intake” value is “did not differ”. Further, the “body weight gain in HFD-fed mice” value in the data set on C57BL/6J mice [13] (CYM-5442 2.5 mg/kg i.p. daily, 5 days a week over 7 weeks, vs vehicle-treated HFD-fed mice) is given as “effectively prevented”. The “alcohol consumption in the DID paradigm over a 4 h drinking session” value in the data set with C57BL/6J mice [4] (CYM-5442 2.5, 5 mg/kg i.p., male C57BL/6J mice) was “reduces”.
